Key:
[1] = Volatilization Using Stainless Steel Foil; HPLC analysis of the condensation aerosol; assay type: physicochemical; settings: for Purity of the aerosol (purity analysis): single drug on stainless steel foil substrate (5 cm^2), film thickness about 0.4-1.2 μm, capacitor charged to 15 V; for Purity of each drug in the aerosol from a mixture of albuterol and flunisolide: about 0.20 mg flunisolide and about 0.16 mg albuterol co-coated on stainless steel foil (5 cm^2), film about 0.64 μm, capacitor 15.5 V
Description: Strips of clean 304 stainless steel foil (0.0125 cm thick, Thin Metal Sales) having dimensions 1.3 cm by 7.0 cm were dip-coated approximately 4.5 to 5 cm on the strip with an asthma drug solution prepared as described above. The foil was then partially dipped three times into solvent to rinse drug off of the last 2-3 cm of the dipped end of the foil. Alternatively, the drug-coating from this bottom 2-3 cm area was carefully taken off with a razor blade. The final coated area was between 2.0-2.5 cm by 1.3 cm on both sides of the foil, for a total area of between 5.2-6.5 cm^2. Foils were prepared as stated above and then some were extracted with methanol or acetonitrile as standards. The amount of drug was determined from quantitative HPLC analysis. Using the known drug-coated surface area, the thickness was then calculated.
After drying, the drug-coated foil was placed into a volatilization chamber constructed of a Delrin block (the airway) and brass bars, which served as electrodes. The dimensions of the airway were 1.3 cm high by 2.6 cm wide by 8.9 cm long. The drug-coated foil was placed into the volatilization chamber such that the drug-coated section was between the two sets of electrodes. After securing the top of the volatilization chamber, the electrodes were connected to a 1 Farad capacitor (Phoenix Gold). The back of the volatilization chamber was connected to a two micron Teflon® filter (Savillex) and filter housing, which were in turn connected to the house vacuum. Sufficient airflow was initiated (typically 30 L/min=1.5 m/sec), at which point the capacitor was charged with a power supply, typically to between 14-17 Volts.
The circuit was closed with a switch, causing the drug-coated foil to resistively heat to temperatures of about 280-430° C. (as measured with an infrared camera (FLIR Thermacam SC3000)), in about 200 milliseconds. After the drug had vaporized, airflow was stopped and the Teflon® filter was extracted with acetonitrile. Drug extracted from the filter was analyzed generally by HPLC UV absorbance generally at 225 nm using a gradient method aimed at detection of impurities to determine percent purity. Also, the extracted drug was quantified to determine a percent yield, based on the mass of drug initially coated onto the substrate. A percent recovery was determined by quantifying any drug remaining on the substrate and chamber walls, adding this to the quantity of drug recovered in the filter and comparing it to the mass of drug initially coated onto the substrate.

[2] = Volatilization from stainless steel cylinder (flashbar); HPLC analysis of the condensation aerosol; assay type: physicochemical; settings: drug dip coated on stainless steel flashbar, capacitors 20.5 volts, heated to about 400° C. within about 200 milliseconds, 15 L/min room air
Description: A hollow stainless steel cylinder with thin walls, typically 0.12 mm wall thickness, a diameter of 13 mm, and a length of 34 mm was cleaned in dichloromethane, methanol, and acetone, then dried, and fired at least once to remove any residual volatile material and to thermally passivate the stainless steel surface. The substrate was then dip-coated with a drug coating solution (prepared as described above). The dip-coating was done using a computerized dipcoating machine to produce a thin layer of drug on the outside of the substrate surface. The substrate was lowered into the drug solution and then removed from the solvent at a rate of typically 5-25 cm/sec. (To coat larger amounts of material on the substrate, the substrate was removed more rapidly from the solvent or the solution used was more concentrated.) The substrate was then allowed to dry for 30 minutes inside a fume hood. If either dimethylformamide (DMF) or a water mixture was used as a dip-coating solvent, the substrate was vacuum dried inside a desiccator for a minimum of one hour. The drug-coated portion of the cylinder generally has a surface area of 8 cm^2. By assuming a unit density for the drug, the initial drug coating thickness was calculated. The amount of drug coated onto the substrates was determined in the same manner as that described above: the substrates were coated, then extracted with methanol or acetonitrile and analyzed with quantitative HPLC methods, to determine the mass of drug coated onto the substrate.
The drug-coated substrate was placed in a surrounding glass tube connected at the exit end via Tygon® tubing to a filter holder fitted with a Teflon® filter (Savillex). The junction of the tubing and the filter was sealed with paraffin film. The substrate was placed in a fitting for connection to two 1 Farad capacitors wired in parallel and controlled by a high current relay. The capacitors were charged by a separate power source to about 18-22 Volts and most of the power was channeled to the substrate by closing a switch and allowing the capacitors to discharge into the substrate. The substrate was heated to a temperature of between about 300-500° C. in about 100 milliseconds. The heating process was done under an airflow of 15 L/min, which swept the vaporized drug aerosol into a 2 micron Teflon® filter.
After volatilization, the aerosol captured on the filter was recovered for quantification and analysis. The quantity of material recovered in the filter was used to determine a percent yield, based on the mass of drug coated onto the substrate. The material recovered in the filter was also analyzed generally by HPLC UV absorbance at typically 225 nm using a gradient method aimed at detection of impurities, to determine purity of the thermal vapor. Any material deposited on the glass sleeve or remaining on the substrate was also recovered and quantified to determine a percent total recovery ((mass of drug in filter+mass of drug remaining on substrate and glass sleeve)/mass of drug coated onto substrate). For compounds without UV absorption GCMS or LC/MS was used to determine purity and to quantify the recovery. Some samples were further analyzed by LC/MS to confirm the molecular weight of the drug and any degradants.
About 1.2 mg of albuterol was dip coated onto the stainless steel surface of a flashbar apparatus. (The flashbar is a cylinder 3.5 cm long and 1.3 cm in diameter consisting of a hollow tube of 0.005″ thick stainless steel). Brass electrodes were connected to either end of the steel cylinder. The coated flashbar was secured in an electrical mount, which connected to two 1.0 Farad capacitors in parallel. An airway was provided by a 2 cm diameter glass sleeve placed around the flashbar. 15 L/min of room air were pulled by a house vacuum through the vaporization chamber and a filter housing, which contained a two-micron Teflon filter. […]

| Molecule | Purity of the aerosol (purity analysis) [1] | Purity of the aerosol (purity analysis by HPLC) [2] | Purity of each drug in the aerosol from a mixture of albuterol and flunisolide [1] |
| --- | --- | --- | --- |
| CCCn1c(=O)c2[nH]c(C3CCCC3)nc2n(CCC)c1=O [CPX] | 99.8% |  |  |
| CC(C)Cn1c(=O)n(C)c(=O)c2[nH]cnc21 [IBMX] | 99.9% |  |  |
| CC(C)(C)NCC(O)c1ccc(O)c(CO)c1 (centres unmarked) [albuterol] |  | 94.4% | 97.2% |
| CCCC1O[C@@H]2C[C@H]3[C@@H]4CCC5=CC(=O)C=C[C@]5(C)[C@H]4[C@@H](O)C[C@]3(C)[C@]2(C(=O)CO)O1 (some centres unmarked) [budesonide] |  | 70.5% |  |
| CC(C)C(=O)OCC(=O)[C@@]12O[C@H](C3CCCCC3)O[C@@H]1C[C@H]1[C@@H]3CCC4=CC(=O)C=C[C@]4(C)[C@H]3[C@@H](O)C[C@@]12C [ciclesonide] | 99.03% |  |  |
| flunisolide | 94.9% | 97.6% | 94.5% |

More lines, now with the values ahead:

| Purity of the aerosol (purity analysis) [1] | Purity of the aerosol (purity analysis by HPLC) [2] | Purity of each drug in the aerosol from a mixture of albuterol and flunisolide [1] | Molecule |
| --- | --- | --- | --- |
| 91.6% |  |  | CCC(=O)O[C@]1(C(=O)SCF)[C@H](C)C[C@H]2[C@@H]3C[C@H](F)C4=CC(=O)C=C[C@]4(C)[C@@]3(F)[C@@H](O)C[C@@]21C [fluticasone propionate] |
|  | 99.1% |  | CC(C)NCC(O)c1cc(O)cc(O)c1 (centres unmarked) [metaproterenol] |
|  | 99.3% |  | CC(C)(C)NCC(O)c1cc(O)cc(O)c1 (centres unmarked) [terbutaline] |
|  | about 99.5% |  | Cn1c(=O)c2[nH]cnc2n(C)c1=O [theophylline] |
|  | about 92.0% |  | CC1(C)O[C@@H]2C[C@H]3[C@@H]4CCC5=CC(=O)C=C[C@]5(C)[C@@]4(F)[C@@H](O)C[C@]3(C)[C@]2(C(=O)CO)O1 [triamcinolone acetonide] |
